From patent publication US20110021625A1, “NEURONAL CELL DEATH INHIBITOR” (LEAD CHEMICAL CO., LTD., priority 2008, published 2011)

Key:
Format in all cases: cell-based, SD rats
[1] = tested on: rat cerebral cortical neurons treated with Aβ(25-35); assay: Measurement of neuronal cell death induced by Aβ(25-35) (calcein AM uptake, cell viability); conditions: 10 μM Aβ(25-35) and Compound 11 100 nM, 8-well culture slide, 4 days; FIG. 2; vs control group
Method: Cerebral cortical neurons of SD rats (embryonic day 18) were primary cultured. The neurons were seeded in a 24-well culture dish at a density of 2.86×10^5 cells/cm^2, and after 3 days, simultaneously treated with 10 μM partial peptide including the 25 to 35-amino acid residue of Aβ (hereinafter called Aβ(25-35)) and each of Compounds 1 to 5 (100 nM). After another 4 days, 6 μM calcein AM was added, the whole was incubated for 40 minutes at 37° C., and the fluorescence intensity at 485 nm was measured so that the uptake of calcein AM into the neurons was calculated to determine the cell viability. The group without the Aβ(25-35) treatment and the administration of any medical agents was defined as a control group, and the group with the Aβ(25-35) treatment but without the administration of any medical agents was defined as a vehicle group.
Separately, the neurons were seeded in an 8-well culture slide at a density of 2.14×10^5 cells/cm^2, and after 5 days, simultaneously treated with 10 μM Aβ(25-35) and Compound 11 (100 nM). After another 4 days, 6 μM calcein AM was added, and the whole was incubated for 40 minutes at 37° C. Then the neurons were fixed, and the fluorescence image was obtained under a fluorescence microscope AX-80. The uptake of calcein AM into the neurons was quantitatively analyzed with an ATTO Densitograph (ATTO, Tokyo, Japan) to determine the cell viability. […]

[2] = tested on: rat cerebral cortical neurons treated with Aβ(1-42); assay: Measurement of dendrite atrophy induced by Aβ(1-42) (MAP2 immunostaining); conditions: 5 μM Aβ(1-42), after 3 days each of Compounds 5, 11, 21, and 22 (1 μM), another 5 days; FIG. 5; vs control group
Method: Cerebral cortical neurons of SD rats (embryonic day 18) were primary cultured. The neurons were seeded in an 8-well culture slide at a density of 2.6×10^5 cells/cm^2. After 5 days, the neurons were treated with 5 μM Aβ(1-42), and after another 3 days, treated with each of Compounds 5, 11, 21, and 22 (each 1 μM). After another 5 days, immunostaining was carried out. The used primary antibody was a rabbit polyclonal antibody against MAP2 that is as a marker protein of the dendrite (a dilution degree of 500; Chemicon, Temecula, Calif., USA). The used secondary antibody was Alexa Fluor 568 labeled goat anti-rabbit IgG (a dilution degree of 300; Molecular Probes, Carlsbad, Calif., USA). The neurons were observed under a fluorescence microscope AX-80 (Olympus, Tokyo, Japan) and the fluorescence image was obtained. The average length of the dendrites per neuron was measured with Neurocyte Ver. 1.5 (Toyobo, Osaka, Japan). The group without the Aβ(1-42) treatment and the administration of any medical agents was defined as a control group, and the group with the Aβ(1-42) treatment but without the administration of any medical agents was defined as a vehicle group.

[3] = tested on: rat cerebral cortical neurons treated with Aβ(1-42); assay: Measurement of axon atrophy induced by Aβ(1-42) (phosphorylated neurofilament H immunostaining); conditions: 5 μM Aβ(1-42), after 3 days each of Compounds 5, 11, 21, and 22 (1 μM), another 5 days; FIG. 6; vs control group
Method: Cerebral cortical neurons of SD rats (embryonic day 18) were primary cultured. The neurons were seeded in an 8-well culture slide at a density of 2.6×10^5 cells/cm^2, after 5 days, treated with 5 μM Aβ(1-42), and after another 3 days, treated with each of Compounds 5, 11, 21, and 22 (each 1 μM). After another 5 days, immunostaining was carried out. The used primary antibody was a mouse monoclonal antibody against phosphorylated neurofilament H that is a marker protein of the axon (a dilution degree of 500; Sternberger Monoclonals, MD, USA). The used secondary antibody was Alexa Fluor 488 labeled goat anti-[…] IgG (a dilution degree of 300; Molecular Probes, Carlsbad, Calif., USA). The neurons were observed under a fluorescence microscope AX-80 (Olympus, Tokyo, Japan) and the fluorescence image was obtained. The average length of the axons per neuron was measured with Neurocyte Ver. 1.5 (Toyobo, Osaka, Japan). The group without the Aβ(1-42) treatment and the administration of any medical agents was defined as a control group, and the group with the Aβ(1-42) treatment but without the administration of any medical agents was defined as a vehicle group.

## N#CC12CCC3(OCCO3)C3=COC(Cc4ccc(O)cc41)C32 (stereo not drawn) [Compound 11, 9-hydroxy-2,3,5a,10c-tetrahydro-1H,6H-5-oxa-3-oxo-acephenanthrylene-10b-carbonitrile ethylene ketal]
[1]
  cell viability (uptake of calcein AM, fluorescence image): cell viability remarkably higher than that of the control group

## COc1cc2c(cc1O)C1(C#N)CCC3(OCCO3)C3=COC(C2)C31 (stereo not drawn) [Compound 22, 9-hydroxy-8-methoxy-2,3,5a,10c-tetrahydro-1H,6H-5-oxa-3-oxo-acephenanthrylene-10b-carbonitrile ethylene ketal]
[2]
  dendrite outgrowth effect (average length of the dendrites per neuron): dendrite outgrowth effect remarkably higher than that of the control group
[3]
  axon outgrowth effect (average length of the axons per neuron): axon outgrowth effect remarkably higher than that of the control group
